# Measured values published in patent US5972943A, “Pyridinecarboxamide derivatives” (Nisshin Flour Milling Co., Ltd., priority 1996, dated 1999).
# Key:
# [1] = Behavior suppressing activity (background statement); assay type: in vivo; details: background / disclosure statement
# [2] = tested on: hypoxia and anoxia models; details: Sakurai et al., Jpn. J. Pharmacol. 1993; cited from earlier work
# hypoxic model of mice = test: Cerebral protective action (anti-anoxia action), hypoxic model of mice, gasping duration after decapitation; assay type: in vivo, ddY-strain male mice; details: 1.0 mg/kg i.v., 30 minutes before decapitation
# Procedure: Cerebral protective action of the pyridinecarboxamide derivatives of this invention (an anti-anoxia action) were studied using a hypoxic model of mice.
# Using ddY-strain male mice of 6 weeks old, the test substance of Compound 1, Compound 10 or Compound 11 was intravenously administered to the tail vein at the dose of 1.0 mg/kg. After 30 minutes from the administration, animals were decapitated to measure a gasping duration. This measurement was made by two persons who had not been informed of the test substances and the measured values were averaged to obtain the data. Also, the test was carried out in the same manner as described above except that Comparative Compound 1 was administered instead of the test substances.
# The action of each substance will be shown in Table 2, with the gasping time of Comparative Compound 1 being defined as 1.
# It is believed that grasping after decapitation is controlled by the respiratory center and, if the nervous functions are maintained by the respiratory center, the gasping duration would be prolonged. […] In view of the foregoing, the pyridinecarboxamide derivatives of this invention can prolong the gasping duration and then are useful as a cerebral protective agent.
# [3] = Behavior suppressing action (general behaviors of mice); assay type: in vivo, ddY-strain mice; details: 10 mg/kg, tail vein; for Behavioral suppression: observed over one hour
# Procedure: The effect of the present pyridinecarboxamide derivatives on general behaviors of mice was studied.
# Using ddY-strain mice of 7 weeks old, test substance was administered at 100μ11/10 sec to the tail vein and behavior of the animal was observed over one hour. After the administration, sedative animal was evaluated as sedated, while animal with behavioral suppression was evaluated as suppressed.
# [4] = tested on: cerebral edema, ischemic reperfusion model using SHR-SP; test: Anti-cerebral edema action (ischemic reperfusion model using SHR-SP); assay type: in vivo, male SHR-SP (spontaneous hypertensive rats); details: 1 mg/kg i.v. twice; for Inhibitory rate of cerebral ischemia (cerebral edema): immediately after ischemia and immediately before reperfusion
# Procedure: The pyridinecarboxamide derivatives of this invention were studied for the inhibitory action on cerebral edema with the model using SHR-SP (Spontaneous hypertensive rats which are vulnerable to cerebral hemorrhage).
# Male SHR-SP of 15-17 weeks old were measured for the blood pressure one day before the testing and classified into groups. Both common carotid arteries were separated under pentobarbital anesthesia at 35 mg/kg and common carotid arteries were fastened by clamp to cause ischemia. After 2 hours, the clamp was removed from the common carotid artery to reperfuse. After a further 2 hours, the animal was decapitated and the cerebrum excised under ether anesthesia. The cerebrum was dried in an oven at 105° C. for 24 hours and the cerebral water content (%) was calculated. [formula]
# Compound 1 and Comparative Compound 2 were intravenously administered twice, that is, immediately after the ischemia and immediately before the reperfusion at the dose of 1 mg/kg, respectively.
# hippocampus CA1 cells = test: Inhibitory rate of delayed neuronal death; assay type: in vivo, MON/Jms/Gbs-strain male jirds; details: 0.5 mg/kg, carotid artery, immediately after ischemia; jirds; 7 days
# Procedure: MON/Jms/Gbs-strain male jirds (weighing 60-80 g) were fixed at the dorsal position under 1.5-2.0% halothane anesthesia and the common carotid artery was isolated. Ischemia was caused by fastening the common carotid artery with clamp for 3 minutes and then reperfused. After 7 days, the brain was excised under ether anesthesia and fixed with 10% formalin for 2 days and then tissue slices of the hippocampus were prepared. The hippocampus CA1 cells were stained using HE staining and the survival rate of the CA1 cells was evaluated.
# Compound 1 was administered to the carotid artery at the dose of 0.5 mg/kg immediately after ischemia. Using as a control the case wherein the drug was not administered, inhibitory rate was calculated according to the following equation: [formula]
# [5] = tested on: cerebral edema model using polyvinyl acetate; test: Anti-cerebral edema action (obstructive cerebral ischemia model using polyvinyl acetate); assay type: in vivo, Wistar-strain male rats; details: 1 mg/kg i.v., 5 minutes before polyvinyl acetate; rats
# Procedure: Inhibiting action on cerebral ischemia was studied in an obstructive cerebral ischemia model using polyvinyl acetate.
# The obstructive model was prepared as described below. (Hiroyoshi Nishi et al., Stroke 1989, 20:1236-1240)
# Wistar-strain male rats weighing 200-350 g were used and fixed at the dorsal position under anesthesia of ether and then the left common carotid artery, internal carotid artery, external carotid artery were isolated. The external carotid artery was ligated, the pterylgopalatine artery was fastened with clamp and a cannula was inserted from the external carotid artery toward the branch between the internal carotid artery and the common carotid artery. 5 μl of a 3% polyvinyl acetate/52% ethanol solution in water was injected. After 30 seconds, the clamp was removed from the artery and then the wound was sutured. After 24 hours, animal was decapitated and the cerebrum was isolated, within 120 seconds from which wet weights of the left cerebrum and the right cerebrum were measured. The left and right cerebra were dried in an oven at 105° C. for 24 hours and then the dry weights were measured. A cerebral water content was calculated according to the following equation: [formula]
# Compound 1 or Compound 9 was intravenously injected to the tail vein at the doses of 1.0 mg/kg and 3.0 mg/kg before 5 minutes from the administration of polyvinyl acetate.
# [6] = tested on: lipid peroxidation in rat brain homogenate; test: Inhibitory action on lipid peroxidation in rat brain homogenate; assay type: biochemical, Wistar-strain male rats; details: 10^-4 M, 37° C., 15 minutes
# Procedure: Inhibitory action on lipid peroxidation was studied in rat brain homogenate.
# Wistar-strain male rats (weighing 230-300 g) were decapitated and the cerebrum was quickly excised. A 4 times volume of a solution of 50 mM phosphoric acid and […] NaCl (pH 7.4) was added and the mixture was homogenated and then centrifuged at 3000 rpm for 10 minutes. The supernatant thus obtained was prepared to give a protein level of 2 mg/ml.
# Determination of lipid peroxide was carried out using TBA method (thiobarbituric acid). To the brain homogenate was added each of Compound 1, Compound 5, Compound 6, Compound 8, Compound 9, Compound 11 and Compound 14 as a test substance to give a final concentration of 10^-4 M, thereby initiating the reaction. After incubation at 37° C. for 15 minutes, the reaction was stopped in ice by adding a 35% perchloric acid solution. The reaction mixture was centrifuged at 4° C. and 1000 rpm for 5 minutes and to the supernatant thus obtained was added a 0.5% TBA solution. The mixture was boiled at 100° C. for 15 minutes. After cooling, absorbance was determined at 532 nm. 1,1,3,3-Tetraethoxypropane as a standard was subjected to the reaction in the same manner as above and an amount of lipid peroxide, that is, an amount of the malondialdehyde (MDA) produced was determined from the absorbance.
# Inhibitory rate of lipid peroxidation was calculated according to the following equation: [formula]
# [7] = known drug, background statement; cited from earlier work
Behavioral suppression [3],SMILES,Gasping duration (relative to Comparative Compound 1 defined as 1) (hypoxic model of mice),General behaviors (result in words) [3],Inhibitory rate of lipid peroxidation [6] [%],also measured
Non,"CCN1CCN(c2ccc(C(=O)NCCCCCCCCCCCCCCO[N+](=O)[O-])cn2)CC1 [Compound 5, N-(14-Nitroxytetradecyl)-6-(4-ethyl-1-piperazinyl)pyridine-3-carboxamide]",–,No abnormalities were observed in general behaviors,69,–
Non,"CCCN1CCN(c2ccc(C(=O)NCCCCCCCCCCCCCCO[N+](=O)[O-])cn2)CC1 [Compound 7, N-(14-Nitroxytetradecyl)-6-(4-propyl-1-piperazinyl)pyridine-3-carboxamide]",–,No abnormalities were observed in general behaviors,–,–
Non,"CC(C)N1CCN(c2ccc(C(=O)NCCCCCCCCCCCCCCO[N+](=O)[O-])cn2)CC1 [Compound 8, N-(14-Nitroxytetradecyl)-6-(4-isopropyl-1-piperazinyl)pyridine-3-carboxamide]",–,No abnormalities were observed in general behaviors,70,–
Non,"CN1CCN(c2ccc(C(=O)NCCCCCCCCCCCCCCCCO[N+](=O)[O-])cn2)CC1 [Compound 9, N-(16-Nitroxyhexadecyl)-6-(4-methyl-1-piperazinyl)pyridine-3-carboxamide]",–,No abnormalities were observed in general behaviors,72,Inhibitory rate of cerebral edema [5]: 33.3%
Non,"CCN1CCN(c2ccc(C(=O)NCCCCCCCCCCCCCCCCO[N+](=O)[O-])cn2)CC1 [Compound 10, N-(16-Nitroxyhexadecyl)-6-(4-ethyl-1-piperazinyl)pyridine-3-carboxamide]",1.7,No abnormalities were observed in general behaviors,–,–
Non,"CC(C)N1CCN(c2ccc(C(=O)NCCCCCCCCCCCCCCCCO[N+](=O)[O-])cn2)CC1 [Compound 11, N-(16-Nitroxyhexadecyl)-6-(4-isopropyl-1-piperazinyl)pyridine-3-carboxamide]",1.4,No abnormalities were observed in general behaviors,53,–

# More lines, now with the values behind:
SMILES,Behavioral suppression [3],Gasping duration (relative to Comparative Compound 1 defined as 1) (hypoxic model of mice),General behaviors (result in words) [3],Inhibitory rate of lipid peroxidation [6] [%],also measured
"CN1CCN(c2ccc(C(=O)NCCCCCCCCCCCO[N+](=O)[O-])cn2)CC1 [Comparative Compound 1, N-(11-nitroxy-1-undecanyl)-6-(4-methyl-1-piperazinyl)nicotinamide, reference compound]",Sedated,1,suppression of behavior being shown,–,Behavior suppressing activity [1]: observed to possess a behavior suppressing activity; Cerebral protective effect on the hypoxia and anoxia models [2]: could show a cerebral protective effect on the hypoxia and anoxia models
"CN1CCN(c2ccc(C(=O)NCCCCCCCCCCCCO[N+](=O)[O-])cn2)CC1 [Comparative Compound 2, N-(12-nitroxy-1-dodecanyl)-6-(4-methyl-1-piperazinyl)nicotinamide, reference compound]",–,–,–,–,Anti-cerebral edema activity (result in words) [4]: made cerebral edema worse; Inhibitory rate of cerebral ischemia (cerebral edema) [4]: -90%
"CN1CCN(c2ccc(C(=O)NCCCCCCCCCCCCCCO[N+](=O)[O-])cn2)CC1 [Compound 1, N-(14-Nitroxytetradecyl)-6-(4-methyl-1-piperazinyl)pyridine-3-carboxamide]",Non,2.6,No abnormalities were observed in general behaviors,91,Inhibitory rate (delayed neuronal death) (hippocampus CA1 cells): 47%; Inhibitory rate of cerebral edema [5]: 44.0%; Anti-cerebral edema activity (result in words) [4]: potent anti-cerebral edema activity; Inhibitory rate of cerebral ischemia (cerebral edema) [4]: 63%
"O=C(NCCCCCCCCCCCCCCO[N+](=O)[O-])c1ccc(N2CCNCC2)nc1 [Compound 6, N-(14-Nitroxytetradecyl)-6-(1-piperazinyl)pyridine-3-carboxamide]",Non,–,No abnormalities were observed in general behaviors,59,–
"CN1CCN(c2ccc(C(=O)NCCCCCCCCCCCCCCCCCCO[N+](=O)[O-])cn2)CC1 [Compound 13, N-(18-Nitroxyoctadecyl)-6-(4-methyl-1-piperazinyl)pyridine-3-carboxamide]",Non,–,No abnormalities were observed in general behaviors,–,–
"O=C(NCCCCCCCCCCCCCCCCCCO[N+](=O)[O-])c1ccc(N2CCNCC2)nc1 [Compound 14, N-(18-Nitroxyoctadecyl)-6-(1-piperazinyl)pyridine-3-carboxamide]",–,–,–,75,–
CCN(CC)Cc1nccn1-c1ccc([N+](=O)[O-])cc1C(=O)c1ccccc1Cl [Nizofenone],–,–,–,–,Behavior suppressing activity as a side-effect [7]: behavior suppressing activity
